# US11285218B2, “Degradation of bromodomain-containing protein 9 (BRD9) by conjugation of BRD9 inhibitors with E3 ligase ligand and methods of use” (Dana-Farber Cancer Institute, Inc., priority 2016, dated 2022)
# Experiments:
# [1] = molecular target: T1, BRD2(2) (Homo sapiens, UniProt P25440); assay: BromoScan single-point screen; format: binding; conditions: percent of protein captured on solid support vs control
# T1 construct: utilizing DNA-tagged bromodomain and immobilized ligand attached to solid support
# Description: (§1) The BromoScan is an assay that measures the engagement of compounds with bromodomain proteins by utilizing DNA-tagged bromodomain and immobilized ligand attached to solid support. In the control test, DNA-tagged bromodomain binds to the ligand and the bromodomain is captured on the solid support. Compounds that compete for the bromodomain binding location on the ligand will prevent the bromodomain from binding, resulting in less protein captured on the solid support.
# [2] = molecular target: T2, BRD3(2) (Homo sapiens, UniProt Q15059); assay: BromoScan single-point screen; format: binding; conditions: percent of protein captured on solid support vs control
# T2 construct: utilizing DNA-tagged bromodomain and immobilized ligand attached to solid support
# Description: as §1
# [3] = molecular target: T3, BRPF3 (Homo sapiens, UniProt Q9ULD4); assay: BromoScan single-point screen; format: binding; conditions: percent of protein captured on solid support vs control
# T3 construct: utilizing DNA-tagged bromodomain and immobilized ligand attached to solid support
# Description: as §1
# [4] = molecular target: T4, BRDT(1) (Homo sapiens, UniProt Q58F21); assay: BromoScan single-point screen; format: binding; conditions: percent of protein captured on solid support vs control
# T4 construct: utilizing DNA-tagged bromodomain and immobilized ligand attached to solid support
# Description: as §1
# [5] = molecular target: T5, BRD4(2) (Homo sapiens, UniProt O60885); assay: BromoScan single-point screen; format: binding; conditions: percent of protein captured on solid support vs control
# T5 construct: utilizing DNA-tagged bromodomain and immobilized ligand attached to solid support
# Description: as §1
# [6] = molecular target: T6, BRD2(1) (Homo sapiens, UniProt P25440); assay: BromoScan single-point screen; format: binding; conditions: percent of protein captured on solid support vs control
# T6 construct: utilizing DNA-tagged bromodomain and immobilized ligand attached to solid support
# Description: as §1
# [7] = molecular target: T7, CREBBP (Homo sapiens, UniProt Q92793); assay: BromoScan single-point screen; format: binding; conditions: percent of protein captured on solid support vs control
# T7 construct: utilizing DNA-tagged bromodomain and immobilized ligand attached to solid support
# Description: as §1
# [8] = molecular target: T8, CECR2 (Homo sapiens, UniProt Q9BXF3); assay: BromoScan single-point screen; format: binding; conditions: percent of protein captured on solid support vs control
# T8 construct: utilizing DNA-tagged bromodomain and immobilized ligand attached to solid support
# Description: as §1
# [9] = molecular target: T9, ATAD2B (Homo sapiens, UniProt Q9ULI0); assay: BromoScan single-point screen; format: binding; conditions: percent of protein captured on solid support vs control
# T9 construct: utilizing DNA-tagged bromodomain and immobilized ligand attached to solid support
# Description: as §1
# [10] = molecular target: T10, BRPF1 (Homo sapiens, UniProt P55201); assay: BromoScan single-point screen; format: binding; conditions: percent of protein captured on solid support vs control
# T10 construct: utilizing DNA-tagged bromodomain and immobilized ligand attached to solid support
# Description: as §1
# [11] = molecular target: T11, BRD3(1) (Homo sapiens, UniProt Q15059); assay: BromoScan single-point screen; format: binding; conditions: percent of protein captured on solid support vs control
# T11 construct: utilizing DNA-tagged bromodomain and immobilized ligand attached to solid support
# Description: as §1
# [12] = molecular target: T12, EP300 (Homo sapiens, UniProt Q09472); assay: BromoScan single-point screen; format: binding; conditions: percent of protein captured on solid support vs control
# T12 construct: utilizing DNA-tagged bromodomain and immobilized ligand attached to solid support
# Description: as §1
# [13] = molecular target: T13, SMARCA4 (Homo sapiens, UniProt P51532); assay: BromoScan single-point screen; format: binding; conditions: percent of protein captured on solid support vs control
# T13 construct: utilizing DNA-tagged bromodomain and immobilized ligand attached to solid support
# Description: as §1
# [14] = molecular target: T14, PCAF (Homo sapiens, UniProt Q92831); assay: BromoScan single-point screen; format: binding; conditions: percent of protein captured on solid support vs control
# T14 construct: utilizing DNA-tagged bromodomain and immobilized ligand attached to solid support
# Description: as §1
# [15] = molecular target: T15, GCN5L2 (Homo sapiens, UniProt Q92830); assay: BromoScan single-point screen; format: binding; conditions: percent of protein captured on solid support vs control
# T15 construct: utilizing DNA-tagged bromodomain and immobilized ligand attached to solid support
# Description: as §1
# [16] = molecular target: T16, TAF1(2) (Homo sapiens, UniProt P21675); assay: BromoScan single-point screen; format: binding; conditions: percent of protein captured on solid support vs control
# T16 construct: utilizing DNA-tagged bromodomain and immobilized ligand attached to solid support
# Description: as §1
# [17] = molecular target: T17, BRD7 (Homo sapiens, UniProt Q9NPI1); assay: BromoScan single-point screen; format: binding; conditions: percent of protein captured on solid support vs control
# T17 construct: utilizing DNA-tagged bromodomain and immobilized ligand attached to solid support
# Description: as §1
# T17 sequence (Q9NPI1 131-235 limits assumed): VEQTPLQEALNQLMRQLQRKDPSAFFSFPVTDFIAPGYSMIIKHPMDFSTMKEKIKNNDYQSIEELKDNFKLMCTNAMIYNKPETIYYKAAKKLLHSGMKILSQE
# [18] = molecular target: T18, SMARCA2 (Homo sapiens, UniProt P51531); assay: BromoScan single-point screen; format: binding; conditions: percent of protein captured on solid support vs control
# T18 construct: utilizing DNA-tagged bromodomain and immobilized ligand attached to solid support
# Description: as §1
# [19] = molecular target: T19, BRD9 (Homo sapiens, UniProt Q9H8M2); assay: BromoScan single-point screen; format: binding; conditions: percent of protein captured on solid support vs control
# T19 construct: utilizing DNA-tagged bromodomain and immobilized ligand attached to solid support
# Description: as §1
# [20] = molecular target: T20, WDR9(2) (Homo sapiens, UniProt Q9NSI6); assay: BromoScan single-point screen; format: binding; conditions: percent of protein captured on solid support vs control
# T20 construct: utilizing DNA-tagged bromodomain and immobilized ligand attached to solid support
# Description: as §1
# [21] = molecular target: T21, BRDT(2) (Homo sapiens, UniProt Q58F21); assay: BromoScan single-point screen; format: binding; conditions: percent of protein captured on solid support vs control
# T21 construct: utilizing DNA-tagged bromodomain and immobilized ligand attached to solid support
# Description: as §1
# [22] = molecular target: T22, PBRM1(5) (Homo sapiens, UniProt Q86U86); assay: BromoScan single-point screen; format: binding; conditions: percent of protein captured on solid support vs control
# T22 construct: utilizing DNA-tagged bromodomain and immobilized ligand attached to solid support
# Description: as §1
# [23] = molecular target: T23, ATAD2A (Homo sapiens, UniProt Q6PL18); assay: BromoScan single-point screen; format: binding; conditions: percent of protein captured on solid support vs control
# T23 construct: utilizing DNA-tagged bromodomain and immobilized ligand attached to solid support
# Description: as §1
# [24] = molecular target: T24, BAZ^2A (Homo sapiens, UniProt Q9UIF9); assay: BromoScan single-point screen; format: binding; conditions: percent of protein captured on solid support vs control
# T24 construct: utilizing DNA-tagged bromodomain and immobilized ligand attached to solid support
# Description: as §1
# [25] = tested on: MM.1S multiple myeloma line; assay: ATPlite viability assay, MM.1S; conditions: 72 hour treatment, in words
# Description: 500 cells/well were plated at a volume of 40 μL/well in white tissue culture treated 384 well assay plates (Thermo Scientific) before DMSO compound stock was added from pre-diluted plates by pin transfer using a Janus Workstation (PerkinElmer, USA). […] Assay plates were allowed to equilibrate to RT for 30 min before reconstituted ATPlite 1 Step reagent (Perkin Elmer) was dispensed at 1:1 volume/well by EL406 automated liquid handler (Biotek, USA).
# [26] = molecular target: BRD7 (Homo sapiens, UniProt Q9NPI1); assay: BRD7 immunoblot in MOLM-13; conditions: MOLM-13, 4 hour treatment
# Target sequence in this assay (Q9NPI1 whole entry): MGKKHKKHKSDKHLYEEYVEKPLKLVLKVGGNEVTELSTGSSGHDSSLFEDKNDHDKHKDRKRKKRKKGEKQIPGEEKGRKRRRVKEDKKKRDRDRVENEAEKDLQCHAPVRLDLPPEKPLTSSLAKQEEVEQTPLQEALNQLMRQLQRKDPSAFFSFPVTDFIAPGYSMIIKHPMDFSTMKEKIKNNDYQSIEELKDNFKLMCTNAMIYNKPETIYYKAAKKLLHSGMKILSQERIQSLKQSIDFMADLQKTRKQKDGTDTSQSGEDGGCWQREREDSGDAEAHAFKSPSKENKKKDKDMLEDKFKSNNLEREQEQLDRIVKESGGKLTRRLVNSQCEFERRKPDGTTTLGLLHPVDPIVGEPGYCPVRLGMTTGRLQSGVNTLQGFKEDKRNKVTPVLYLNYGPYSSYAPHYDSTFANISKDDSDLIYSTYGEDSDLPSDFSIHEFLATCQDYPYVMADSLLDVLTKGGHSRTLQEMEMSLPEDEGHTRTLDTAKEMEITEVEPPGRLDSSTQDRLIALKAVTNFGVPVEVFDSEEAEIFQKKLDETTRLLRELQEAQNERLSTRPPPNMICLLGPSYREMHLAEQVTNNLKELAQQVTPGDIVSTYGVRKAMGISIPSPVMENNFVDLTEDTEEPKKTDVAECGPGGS
# Description: In additional experiments, cells were washed with PBS, before being lysed in RIPA buffer supplemented with 1×HALT™ protease inhibitor cocktail (Thermo Scientific) for 10 min on ice, followed by low-amplitude sonication for 10 seconds at 4° C. […] In soluble material was removed by centrifugation at 20,000×g for 20 min before protein content was quantified by BCA assay (Pierce). […] Blots were imaged using fluorescence-labeled secondary antibodies (LI-COR) on the OdysseyCLxImager (LI-COR).
# [27] = molecular target: BRD4(1) (Homo sapiens, UniProt O60885); assay: BromoScan single-point screen; format: binding; set-up: utilizing DNA-tagged bromodomain and immobilized ligand attached to solid support; conditions: percent of protein captured on solid support vs control
# Description: as §1
# [28] = molecular target: T25, BRD9 (Homo sapiens, UniProt Q9H8M2); assay: BRD9 degradation / cellular activity (Western blot, cell line not stated); conditions: cell line not given
# T25 sequence (Q9H8M2 1-597): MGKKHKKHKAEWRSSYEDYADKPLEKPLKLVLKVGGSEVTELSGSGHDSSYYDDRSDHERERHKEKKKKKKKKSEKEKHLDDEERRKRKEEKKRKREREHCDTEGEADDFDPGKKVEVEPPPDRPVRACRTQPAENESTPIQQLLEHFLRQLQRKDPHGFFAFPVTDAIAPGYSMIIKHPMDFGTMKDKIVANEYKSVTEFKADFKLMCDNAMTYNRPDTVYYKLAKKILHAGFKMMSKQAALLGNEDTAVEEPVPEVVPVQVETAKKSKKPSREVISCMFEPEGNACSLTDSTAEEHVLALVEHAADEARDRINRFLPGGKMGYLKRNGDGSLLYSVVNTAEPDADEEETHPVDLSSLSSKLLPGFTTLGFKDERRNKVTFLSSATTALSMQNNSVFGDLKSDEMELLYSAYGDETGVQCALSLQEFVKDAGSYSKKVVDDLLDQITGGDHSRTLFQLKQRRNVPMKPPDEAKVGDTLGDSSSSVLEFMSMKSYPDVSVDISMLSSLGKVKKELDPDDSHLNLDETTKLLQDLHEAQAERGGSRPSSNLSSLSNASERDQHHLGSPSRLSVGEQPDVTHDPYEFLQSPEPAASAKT
# [29] = tested on: 32 members of the human bromodomain family; assay: BromoScan single-point screen, panel profile; format: binding; conditions: single-point 1 μM, 32 bromodomains; in words
# Description: as §1
# [30] = molecular target: BRD4 (Homo sapiens, UniProt O60885); assay: BRD4 immunoblot in MOLM-13; conditions: MOLM-13, 4 hour treatment
# Description: In additional experiments, cells were washed with PBS, before being lysed in RIPA buffer supplemented with 1×HALT™ protease inhibitor cocktail (Thermo Scientific) for 10 min on ice, followed by low-amplitude sonication for 10 seconds at 4° C. (Q125, QSonica, USA). In soluble material was removed by centrifugation at 20,000×g for 20 min before protein content was quantified by BCA assay (Pierce). […] Blots were imaged using fluorescence-labeled secondary antibodies (LI-COR) on the OdysseyCLxImager (LI-COR).
# [31] = tested on: TRIM33 (PHD, Bromo.); assay: BromoScan single-point screen; format: binding, human; conditions: percent of protein captured on solid support vs control
# Description: as §1
# T1 sequence (P25440 344-453 limits assumed): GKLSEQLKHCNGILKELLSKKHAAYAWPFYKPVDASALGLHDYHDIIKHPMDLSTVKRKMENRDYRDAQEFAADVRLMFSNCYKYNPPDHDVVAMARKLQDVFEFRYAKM
# T2 sequence (Q15059 306-415 limits assumed): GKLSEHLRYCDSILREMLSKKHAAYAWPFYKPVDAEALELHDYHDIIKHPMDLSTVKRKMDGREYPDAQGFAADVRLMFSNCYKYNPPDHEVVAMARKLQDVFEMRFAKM
# T6 sequence (P25440 74-180 limits assumed): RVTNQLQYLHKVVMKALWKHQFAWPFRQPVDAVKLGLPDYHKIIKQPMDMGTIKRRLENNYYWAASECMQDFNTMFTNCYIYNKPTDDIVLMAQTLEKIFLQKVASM
# T13 sequence (P51532 1453-1564 limits assumed): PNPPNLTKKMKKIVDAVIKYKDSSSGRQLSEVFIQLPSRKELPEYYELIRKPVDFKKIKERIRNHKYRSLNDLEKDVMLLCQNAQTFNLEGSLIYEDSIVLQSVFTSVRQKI
# T7 sequence (Q92793 1085-1192 limits assumed): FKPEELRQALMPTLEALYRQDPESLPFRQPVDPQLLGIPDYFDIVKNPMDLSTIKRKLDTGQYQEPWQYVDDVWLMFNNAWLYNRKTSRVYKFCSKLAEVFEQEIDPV
# T20 sequence (Q9NSI6 1313-1418 limits assumed): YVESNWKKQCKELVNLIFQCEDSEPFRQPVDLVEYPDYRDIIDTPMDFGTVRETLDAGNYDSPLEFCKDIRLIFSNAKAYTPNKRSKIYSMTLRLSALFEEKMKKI
# T22 sequence (Q86U86 653-763 limits assumed): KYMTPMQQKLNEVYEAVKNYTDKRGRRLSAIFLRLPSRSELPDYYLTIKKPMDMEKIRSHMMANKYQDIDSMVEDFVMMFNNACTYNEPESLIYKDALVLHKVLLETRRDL
# T10 sequence (P55201 628-732 limits assumed): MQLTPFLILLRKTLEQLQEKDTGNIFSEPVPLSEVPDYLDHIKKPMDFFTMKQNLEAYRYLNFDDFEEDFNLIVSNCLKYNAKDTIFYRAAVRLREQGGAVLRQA
# T3 sequence (Q9ULD4 589-693 limits assumed): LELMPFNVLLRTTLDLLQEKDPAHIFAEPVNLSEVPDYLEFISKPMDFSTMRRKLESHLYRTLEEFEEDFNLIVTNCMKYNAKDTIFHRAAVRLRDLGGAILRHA
# T24 sequence (Q9UIF9 1793-1897 limits assumed): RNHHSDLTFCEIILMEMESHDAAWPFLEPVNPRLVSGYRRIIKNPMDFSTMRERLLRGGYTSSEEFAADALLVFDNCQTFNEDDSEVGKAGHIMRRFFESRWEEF
# T11 sequence (Q15059 34-140 limits assumed): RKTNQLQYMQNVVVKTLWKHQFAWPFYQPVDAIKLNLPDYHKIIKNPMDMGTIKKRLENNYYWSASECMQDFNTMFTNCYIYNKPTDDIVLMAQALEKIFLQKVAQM
# T12 sequence (Q09472 1049-1156 limits assumed): as the sequence (Q92793 1085-1192 limits assumed) above, with N47S, V73I, F93Y, A98S counted along it
# T16 sequence (P21675 1519-1628 limits assumed): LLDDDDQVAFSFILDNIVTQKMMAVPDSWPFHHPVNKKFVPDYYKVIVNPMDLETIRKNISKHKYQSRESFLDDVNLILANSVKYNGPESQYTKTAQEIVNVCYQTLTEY
# T14 sequence (Q92831 723-827 limits assumed): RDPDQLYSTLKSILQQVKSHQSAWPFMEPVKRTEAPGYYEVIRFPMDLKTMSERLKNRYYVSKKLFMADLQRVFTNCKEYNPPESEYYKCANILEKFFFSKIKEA
# T15 sequence (Q92830 728-832 limits assumed): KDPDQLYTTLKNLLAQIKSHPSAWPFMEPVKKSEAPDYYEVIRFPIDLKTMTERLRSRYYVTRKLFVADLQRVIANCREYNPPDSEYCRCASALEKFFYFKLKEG
# T18 sequence (P51531 1378-1506 limits assumed): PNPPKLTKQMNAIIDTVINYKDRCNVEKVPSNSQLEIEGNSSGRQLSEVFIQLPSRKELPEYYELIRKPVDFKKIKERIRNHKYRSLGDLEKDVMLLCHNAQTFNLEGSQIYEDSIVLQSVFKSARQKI
# T23 sequence (Q6PL18 980-1092 limits assumed): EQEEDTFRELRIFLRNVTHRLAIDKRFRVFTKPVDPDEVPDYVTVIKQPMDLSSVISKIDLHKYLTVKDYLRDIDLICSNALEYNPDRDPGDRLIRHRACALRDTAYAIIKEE
# T9 sequence (Q9ULI0 951-1066 limits assumed): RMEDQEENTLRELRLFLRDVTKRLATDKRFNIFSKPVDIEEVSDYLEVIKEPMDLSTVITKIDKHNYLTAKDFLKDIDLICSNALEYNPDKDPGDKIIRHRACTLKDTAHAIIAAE
# T8 sequence (Q9BXF3 434-538 limits assumed): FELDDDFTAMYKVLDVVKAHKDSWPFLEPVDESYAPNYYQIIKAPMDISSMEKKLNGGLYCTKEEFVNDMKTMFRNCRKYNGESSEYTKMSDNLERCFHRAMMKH
smiles,measurement,setting,value
COc1cc(-c2cn(C)c(=O)c3cc(C(=N)NC4CCS(=O)(=O)CC4)sc23)ccc1OCC(=O)NCCCCCCCCNc1cccc2c1CN(C1CCC(=O)NC1=O)C2=O (stereo not shown) [Compound I-17],% Ctrl @ 1 μM,[1],43 % Ctrl
same,% Ctrl @ 1 μM,[2],19 % Ctrl
same,% Ctrl @ 1 μM,[3],85 % Ctrl
same,% Ctrl @ 1 μM,[4],18 % Ctrl
same,% Ctrl @ 1 μM,[5],40 % Ctrl
same,% Ctrl @ 1 μM,[6],4 % Ctrl
same,% Ctrl @ 1 μM,[7],10 % Ctrl
same,% Ctrl @ 1 μM,[8],0.15 % Ctrl
same,% Ctrl @ 1 μM,[9],60 % Ctrl
same,% Ctrl @ 1 μM,[10],7.6 % Ctrl
same,% Ctrl @ 1 μM,[11],5 % Ctrl
same,% Ctrl @ 1 μM,[12],37 % Ctrl
same,% Ctrl @ 1 μM,[13],41 % Ctrl
same,% Ctrl @ 1 μM,[14],55 % Ctrl
same,% Ctrl @ 1 μM,[15],62 % Ctrl
same,% Ctrl @ 1 μM,[16],19 % Ctrl
same,% Ctrl @ 1 μM,[17],0 % Ctrl
same,% Ctrl @ 1 μM,[18],68 % Ctrl
same,% Ctrl @ 1 μM,[19],0.25 % Ctrl
same,% Ctrl @ 1 μM,[20],83 % Ctrl
same,% Ctrl @ 1 μM,[21],57 % Ctrl
same,% Ctrl @ 1 μM,[22],71 % Ctrl
same,% Ctrl @ 1 μM,[23],100 % Ctrl
same,% Ctrl @ 1 μM,[24],42 % Ctrl
same,efficacy on viability,[25],comparable efficacy
same,BRD7 degradation (immunoblot),[26],degradation was observed
same,% Ctrl @ 1 μM,[27],1.8 % Ctrl
same,"BRD9 degradation / cellular potency, in words",[28],superior
same,bromodomain interaction profile,[29],also BRD7 and members of the BET family
same,BRD4 degradation (immunoblot),[30],"Off target degradation of BRD4, observed at high concentrations"
same,% Ctrl @ 1 μM,[31],100 % Ctrl
